≈ marks a conversion by molar mass, not a printed value. Some results are limits rather than exact numbers.

For 35 compounds, MIC results are on record in US20230002372A1, “AZAINDOLE CARBOXAMIDE COMPOUNDS FOR THE TREATMENT OF MYCOBACTERIAL INFECTIONS” (THE GLOBAL ALLIANCE FOR TB DRUG DEVELOPMENT, INC., priority 2019, published 2023).

The subject of test [1] is M tb H37Rv. Description: MIC determination against M tb H37Rv (green fluorescent protein reporter assay; MIC-MABA). The note with it: Mycobacterium tuberculosis, H37RV, 240 h, read-out: M. TB H37Rv: MIC-MABA: MIC, M. tb H37Rv; 7H9 broth; 10 days exposure; MIC = lowest concentration inhibiting fluorescence by 90%. It is filed as cell-based, Mycobacterium tuberculosis.
Test [2] deals with Mycobacterium abscessus. Description: MIC against Mycobacterium abscessus (Mab_ATCC, MHII broth). It is filed as cell-based. To be noted: Mycobacteroides abscessus; Mycobacterium abscessus ATCC strain; Mueller-Hinton broth (MHII). The text has this: Key for Tables: MIC: Minimum Inhibitory Concentration; MABA: microplate-based Alamar Blue assay; Mab: Mycobacterium abscessus; ATCC: American Type Culture Collection; and MHII: Mueller-Hinton broth.

For orientation: MIC means the lowest concentration found to suppress growth. In the case of `Cc1nc2[nH]c(C(=O)NC3CC[Si](C)(C)CC3)cc2c(F)c1C` [MPL-471, N-(1,1-dimethylsilinan-4-yl)-4-fluoro-5,6-dimethyl-1H-pyrrolo[2,3-b]pyridine-2-carboxamide], the MIC in test [1] is 0.069 µg/mL (≈ 0.207 µM); in test [2], 1 µg/mL (≈ 3 µM). Regarding `Cc1nc2[nH]c(C(=O)NC3CC[Si](C)(C)CC3)cc2c(F)c1F` [MPL-229, N-(1,1-dimethylsilinan-4-yl)-4,5-difluoro-6-methyl-1H-pyrrolo[2,3-b]pyridine-2-carboxamide], the MIC stood at 0.0058 µg/mL (≈ 0.0172 µM) in test [1] and 0.12 µg/mL (≈ 0.356 µM) in test [2]. For `Cc1cc(Cl)c2cc(C(=O)NC3CC[Si](C)(C)C3)[nH]c2n1` (stereo not drawn) [MPL-401, 4-chloro-N-(1,1-dimethylsilolan-3-yl)-6-methyl-1H-pyrrolo[2,3-b]pyridine-2-carboxamide], the MIC in test [1] came to 0.016 µg/mL (≈ 0.0497 µM); in test [2] it was 0.75 µg/mL (≈ 2.33 µM). Taken in the same sequence, the figures for `Cc1nc2[nH]c(C(=O)NC3CCC[Si](C)(C)CC3)cc2c(F)c1Cl` (stereo not drawn) [MPL-316, 5-chloro-N-(1,1-dimethylsilepan-4-yl)-4-fluoro-6-methyl-1H-pyrrolo[2,3-b]pyridine-2-carboxamide] were 0.015 µg/mL (≈ 0.0408 µM) and 0.16 µg/mL (≈ 0.435 µM). Take `COc1ccc2cc(C(=O)N[C@@H]3CCC[Si](C)(C)CC3)[nH]c2n1` (single isomer, unassigned) [MPL-466B]: the MIC in test [1] is over 1 µg/mL; in test [2] it was 8 µg/mL (≈ 24.1 µM). For `COc1cc(F)nc2[nH]c(C(=O)NC3CC[Si](C)(C)CC3)cc12` [MPL-200, N-(1,1-dimethylsilinan-4-yl)-6-fluoro-4-methoxy-1H-pyrrolo[2,3-b]pyridine-2-carboxamide], the figures for the MIC in test [1] and in test [2] were 0.072 µg/mL (≈ 0.215 µM) and 16 µg/mL (≈ 47.7 µM), respectively.

For the compound `Cc1nc(F)cc2cc(C(=O)NC3CCC(C)(C)CC3)[nH]c12` [MPL-135, N-(4,4-dimethylcyclohexyl)-5-fluoro-7-methyl-1H-pyrrolo[2,3-c]pyridine-2-carboxamide], the MIC in test [1] stood at 1.5 µg/mL (≈ 4.94 µM); in test [2] it was 8 µg/mL (≈ 26.4 µM). Consider `C[C@@H]1[C@@H](NC(=O)c2cc3c(Br)ccnc3[nH]2)C[C@H]2C[C@@H]1C2(C)C` [MPL-012, 4-bromo-N-[(1S,2S,3S,5R)-2,6,6-trimethylnorpinan-3-yl]-1H-pyrrolo[2,3-b]pyridine-2-carboxamide], for which the results for the MIC in test [1] and in test [2] were 0.048 µg/mL (≈ 0.128 µM) and 4 µg/mL (≈ 10.6 µM), respectively.

Consider `Cc1nc2[nH]c(C(=O)NC3CC[Si](C)(C)CC3)cc2c(Cl)c1Cl` [MPL-230, 4,5-dichloro-N-(1,1-dimethylsilinan-4-yl)-6-methyl-1H-pyrrolo[2,3-b]pyridine-2-carboxamide], for which the MIC in test [1] is 0.004 µg/mL (≈ 0.0108 µM); in test [2], 16 µg/mL (≈ 43.2 µM).

Consider `C[Si]1(C)CCC(NC(=O)c2cc3ccc(OC4CC4)nc3[nH]2)CC1` [MPL-464, 6-(cyclopropoxy)-N-(1,1-dimethylsilinan-4-yl)-1H-pyrrolo[2,3-b]pyridine-2-carboxamide], for which the results for the MIC in test [1] and in test [2] were 0.124 µg/mL (≈ 0.361 µM) and 1 µg/mL (≈ 2.91 µM), respectively. Taken in the same sequence, the figures for `Cc1cc(F)c2cc(C(=O)NC3CCCCCCC3)[nH]c2n1` [MPL-044, N-cyclooctyl-4-fluoro-6-methyl-1H-pyrrolo[2,3-b]pyridine-2-carboxamide] were 0.013 µg/mL (≈ 0.0429 µM) and 2 µg/mL (≈ 6.59 µM).

For the compound `CC1(C)CCC(NC(=O)c2cc3cc(Cl)ncc3[nH]2)CC1` [MPL-127, 5-chloro-N-(4,4-dimethylcyclohexyl)-1H-pyrrolo[2,3-c]pyridine-2-carboxamide], the MIC in test [1] turned out to be 0.54 µg/mL (≈ 1.77 µM); in test [2], 8 µg/mL (≈ 26.2 µM). Taken in the same sequence, the figures for `COc1cc(F)c2cc(C(=O)NC3CC[Si](C)(C)CC3)[nH]c2n1` [MPL-468, N-(1,1-dimethylsilinan-4-yl)-4-fluoro-6-methoxy-1H-pyrrolo[2,3-b]pyridine-2-carboxamide] were 0.023 µg/mL (≈ 0.0686 µM) and 0.12 µg/mL (≈ 0.358 µM).

As for `Cc1cc(Cl)c2cc(C(=O)NC3CC4CCC3(C)C4(C)C)[nH]c2n1` (stereo not drawn) [MPL-195, 4-chloro-6-methyl-N-(1,7,7-trimethylnorbornan-2-yl)-1H-pyrrolo[2,3-b]pyridine-2-carboxamide], the MIC in test [1] turned out to be 0.014 µg/mL (≈ 0.0405 µM); in test [2] it was 2 µg/mL (≈ 5.78 µM). As for `Cc1cc(Cl)c2cc(C(=O)N[C@H]3C[C@H]4C[C@@H]([C@@H]3C)C4(C)C)[nH]c2n1` [MPL-045, 4-chloro-6-methyl-N-[(1S,2S,3S,5R)-2,6,6-trimethylnorpinan-3-yl]-1H-pyrrolo[2,3-b]pyridine-2-carboxamide], the MIC is 0.069 µg/mL (≈ 0.199 µM) in test [1] and 2 µg/mL (≈ 5.78 µM) in test [2].

As to `Cc1cc(F)c2c(C)c(C(=O)NC3CC[Si](C)(C)CC3)[nH]c2n1` [MPL-209, N-(1,1-dimethylsilinan-4-yl)-4-fluoro-3,6-dimethyl-1H-pyrrolo[2,3-b]pyridine-2-carboxamide], the MIC in test [1] was determined as 0.03 µg/mL (≈ 0.09 µM); in test [2], 1 µg/mL (≈ 3 µM). In the same order, the values of `Cc1nc2[nH]c(C(=O)NC3CCC(C)(C)CC3)cc2c(F)c1F` [MPL-067, N-(4,4-dimethylcyclohexyl)-4,5-difluoro-6-methyl-1H-pyrrolo[2,3-b]pyridine-2-carboxamide] are 0.01 µg/mL (≈ 0.0311 µM) and 0.25 µg/mL (≈ 0.778 µM).

`CC1(C)C2CCC1(C)C(NC(=O)c1cc3c(F)cncc3[nH]1)C2` (stereo not drawn) [MPL-188, 4-fluoro-N-(1,7,7-trimethylnorbornan-2-yl)-1H-pyrrolo[2,3-c]pyridine-2-carboxamide] returned an MIC in test [2] of 8 µg/mL (≈ 25.4 µM).

For `Cc1cc(Cl)c2cc(C(=O)NC3CCC[Si](C)(C)CC3)[nH]c2n1` (stereo not drawn) [MPL-274, 4-chloro-N-(1,1-dimethylsilepan-4-yl)-6-methyl-1H-pyrrolo[2,3-b]pyridine-2-carboxamide], the MIC in test [1] was determined as 0.01 µg/mL (≈ 0.0286 µM); in test [2], 0.75 µg/mL (≈ 2.14 µM). For the compound `Cc1nc2[nH]c(C(=O)NC3CC[Si](C)(C)CC3)cc2c(F)c1Cl` [MPL-232, 5-chloro-N-(1,1-dimethylsilinan-4-yl)-4-fluoro-6-methyl-1H-pyrrolo[2,3-b]pyridine-2-carboxamide], the values for the MIC in test [1] and in test [2] were 0.03 µg/mL (≈ 0.0848 µM) and 0.38 µg/mL (≈ 1.07 µM), respectively. Taken in the same sequence, the figures for `Cc1nc2[nH]c(C(=O)N[C@@H]3CCC[Si](C)(C)CC3)cc2c(F)c1Cl` (single isomer, unassigned) [MPL-316A] were 0.014 µg/mL (≈ 0.0381 µM) and 0.19 µg/mL (≈ 0.516 µM). In the same order, the values of `Cc1cc(Cl)c2cc(C(=O)NC3CC[Si](C)(C)CC3)[nH]c2n1` [MPL-208, 4-chloro-N-(1,1-dimethylsilinan-4-yl)-6-methyl-1H-pyrrolo[2,3-b]pyridine-2-carboxamide] are 0.0045 µg/mL (≈ 0.0134 µM) and 1 µg/mL (≈ 2.98 µM). In the same order, the values of `Cc1cc2cc(C(=O)N[C@H]3C[C@H]4C[C@@H]([C@@H]3C)C4(C)C)[nH]c2cn1` [MPL-124, 5-methyl-N-[(1S,2S,3S,5R)-2,6,6-trimethylnorpinan-3-yl]-1H-pyrrolo[2,3-c]pyridine-2-carboxamide] are 3.1 µg/mL (≈ 9.95 µM) and 16 µg/mL (≈ 51.4 µM).

For the compound `COc1ccc2cc(C(=O)N[C@H]3CCC[Si](C)(C)CC3)[nH]c2n1` (single isomer, unassigned) [MPL-466A], the minimum inhibitory concentration (MIC) stood at 0.042 µg/mL (≈ 0.127 µM) in test [1] and 0.25 µg/mL (≈ 0.754 µM) in test [2]. In the same order, the values of `Cc1nc2[nH]c(C(=O)NC3CC[Si](C)(C)C3)cc2c(F)c1F` (stereo not drawn) [MPL-295, N-(1,1-dimethylsilolan-3-yl)-4,5-difluoro-6-methyl-1H-pyrrolo[2,3-b]pyridine-2-carboxamide] are 0.024 µg/mL (≈ 0.0742 µM) and 0.28 µg/mL (≈ 0.866 µM). Turning to `Cc1cc(Cl)c2cc(C(=O)NC3CCC(C)(C)CC3)[nH]c2n1` [MPL-119, 4-chloro-N-(4,4-dimethylcyclohexyl)-6-methyl-1H-pyrrolo[2,3-b]pyridine-2-carboxamide], the MIC stood at 0.14 µg/mL (≈ 0.438 µM) in test [1] and 0.5 µg/mL (≈ 1.56 µM) in test [2]. Turning to `O=C(NC1CCCCCCC1)c1cc2c(Cl)cncc2[nH]1` [MPL-034, 4-chloro-N-cyclooctyl-1H-pyrrolo[2,3-c]pyridine-2-carboxamide], the MIC worked out at 0.25 µg/mL (≈ 0.818 µM) in test [1] and 2 µg/mL (≈ 6.54 µM) in test [2]. In the same order, the values of `Cc1nc2[nH]c(C(=O)N[C@H]3CC[Si](C)(C)C3)cc2c(F)c1F` (single isomer, unassigned) [MPL-295B] are under 0.004 µg/mL and 0.12 µg/mL (≈ 0.371 µM).

Take `Cc1nc2[nH]c(C(=O)NC3CC[Si](C)(C)CC3)cc2c(C)c1Cl` [MPL-239, 5-chloro-N-(1,1-dimethylsilinan-4-yl)-4,6-dimethyl-1H-pyrrolo[2,3-b]pyridine-2-carboxamide]: the MIC worked out at 0.0078 µg/mL (≈ 0.0223 µM) in test [1] and 16 µg/mL (≈ 45.7 µM) in test [2]. `COc1ccc2cc(C(=O)NC3CC[Si](C)(C)CC3)[nH]c2n1` [MPL-387, N-(1,1-dimethylsilinan-4-yl)-6-methoxy-1H-pyrrolo[2,3-b]pyridine-2-carboxamide]: the minimal inhibitory concentration (MIC) worked out at 0.163 µg/mL (≈ 0.513 µM) in test [1] and 0.5 µg/mL (≈ 1.57 µM) in test [2]. Taken in the same sequence, the figures for `COc1ccc2cc(C(=O)NC3CCC(C)(C)CC3)[nH]c2n1` [MPL-453, N-(4,4-dimethylcyclohexyl)-6-methoxy-1H-pyrrolo[2,3-b]pyridine-2-carboxamide] were 0.284 µg/mL (≈ 0.942 µM) and 0.5 µg/mL (≈ 1.66 µM). As to `Cc1cc(F)c2cc(C(=O)NC3CCC(C)(C)CC3)[nH]c2n1` [MPL-118, N-(4,4-dimethylcyclohexyl)-4-fluoro-6-methyl-1H-pyrrolo[2,3-b]pyridine-2-carboxamide], the MIC in test [1] amounted to 0.017 µg/mL (≈ 0.056 µM); in test [2] it was 1 µg/mL (≈ 3.3 µM). For the compound `C[Si]1(C)CCC(NC(=O)c2cc3c(F)cncc3[nH]2)CC1` [MPL-191, N-(1,1-dimethylsilinan-4-yl)-4-fluoro-1H-pyrrolo[2,3-c]pyridine-2-carboxamide], in test [1], the minimal inhibitory concentration (MIC) worked out at 0.0087 µg/mL (≈ 0.0285 µM). Still for that read-out and setting: the same measure for `Cc1nc2[nH]c(C(=O)N[C@@H]3CC[Si](C)(C)C3)cc2c(F)c1F` (single isomer, unassigned) [MPL-295A]: 0.22 µg/mL (≈ 0.68 µM); for `C[Si]1(C)CCC(NC(=O)c2cc3c(C(F)(F)F)ccnc3[nH]2)CC1` [MPL-111, N-(1,1-dimethylsilinan-4-yl)-4-(trifluoromethyl)-1H-pyrrolo[2,3-b]pyridine-2-carboxamide]: 0.0095 µg/mL (≈ 0.0267 µM).
